This experiment concerns the target T1, AXL (human catalytic domain) (Homo sapiens, UniProt P30530).
T1 construct: purchased Upstate Ltd. 14-512
T1 sequence (P30530 473-894): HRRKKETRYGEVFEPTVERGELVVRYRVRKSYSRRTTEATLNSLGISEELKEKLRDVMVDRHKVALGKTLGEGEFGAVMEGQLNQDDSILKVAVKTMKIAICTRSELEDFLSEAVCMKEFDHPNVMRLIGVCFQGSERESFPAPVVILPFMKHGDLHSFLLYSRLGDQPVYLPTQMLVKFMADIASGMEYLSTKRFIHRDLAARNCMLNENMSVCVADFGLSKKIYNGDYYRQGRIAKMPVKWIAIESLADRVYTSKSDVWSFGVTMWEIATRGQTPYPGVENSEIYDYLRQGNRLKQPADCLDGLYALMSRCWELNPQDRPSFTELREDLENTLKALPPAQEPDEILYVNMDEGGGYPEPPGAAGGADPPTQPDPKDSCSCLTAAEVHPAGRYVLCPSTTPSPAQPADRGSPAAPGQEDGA
The experiment in a line: AXL (human catalytic domain) Enzyme Activity Assay (IMAP fluorescence polarisation). Type of experiment: biochemical. In outline: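 IMAP FP readout (Ex485/Em535, after overnight binding) measured inhibition of the human AXL catalytic domain (aa473-894, 15 nM final) acting on 100 nM 5FAM-CSK-tide at 150 μM ATP, equal to KM. Reactions ran 60 min at room temperature in pH 7.0 HEPES buffer; IC50 from 10-point curves.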

The mark [1] stands for this setting: first data set, recombinant AXL isoform 1 aa473-894, 150 μM ATP.
Where [2] appears, read: further data set (WW-001 through WW-169, XX-001 through XX-469, YY-001 through YY-016, ZZ-001 through ZZ-003), 150 μM ATP.

Consider `O=C(Nc1nc2cccc(-c3ccc(C(F)(F)F)cc3)n2n1)C1CC1` [WW-031], for which the IC50 is 1000 to 10000 nM under setting [1] and 1000 to 10000 nM under setting [2].

As for `COc1ccc(-c2cccc3nc(Nc4ccc(OCCN5CCCC5)cc4)nn23)cc1` [XX-004], the concentration for half-maximal inhibition (IC50) under setting [1] was below 1000 nM and the concentration for half-maximal inhibition (IC50) under setting [2] lay within 1000 to 10000 nM.

`NCCNc1ccc(-c2cccc3nc(NC(=O)C4CC4)nn23)cc1` [WW-158, Cyclopropanecarboxylic acid {5-[4-(2-amino-ethylamino)-phenyl]-[1,2,4]triazolo[1,5-a]pyridin-2-yl}-amide]: the IC50 under setting [1] is 1000 to 10000 nM and the IC50 under setting [2] lay within 1000 to 10000 nM.

Regarding `c1ccc(CNc2cccc(-c3cccc4nc(Nc5ccc(OCCN6CCCC6)cc5)nn34)c2)cc1` [XX-398], the IC50 under setting [2] is 100 to 1000 nM.

As to `COC(=O)c1ccc(-c2cccc3nc(NC(=O)C4CC4)nn23)cc1` [WW-070], the IC50 fell in the range of 1000 to 10000 nM under setting [1] and 1000 to 10000 nM under setting [2].

`c1cc(-c2cnn(CCSc3nccs3)c2)n2nc(Nc3ccc(OCCN4CCCC4)cc3)nc2c1` [XX-425] registered a half-maximal inhibitory concentration (IC50) under setting [2] of 100 to 1000 nM.

Turning to `c1cc(-c2ccc3[nH]ccc3c2)n2nc(Nc3ccc(OCCN4CCCC4)cc3)nc2c1` [XX-281], the half-maximal inhibitory concentration (IC50) under setting [2] is 1000 to 10000 nM.

On to `CN(C)CCCc1ccc(Nc2nc3cccc(-c4ccc5c(c4)OCCO5)n3n2)cc1` [XX-137], for which, under setting [2], the 50% inhibitory concentration (IC50) lay within 100 to 1000 nM.

Consider `CCN(CC)CCOc1ccc(Nc2nc3cccc(-c4ccc5c(c4)OCCO5)n3n2)cc1` [XX-075], for which the half-inhibitory concentration (IC50) by setting is: under setting [1], below 1000 nM; under setting [2], at most 100 nM.

`O=C(Nc1nc2cccc(-c3ccccc3)n2n1)C1CC1` [WW-001, Cyclopropanecarboxylic acid (5-phenyl-[1,2,4]triazolo[1,5-a]pyridin-2-yl)-amide]: the IC50 under setting [1] is below 1000 nM and the IC50 under setting [2] lay in the range of 100 to 1000 nM.

Turning to `c1cc(OCc2ccncc2)cc(-c2cccc3nc(Nc4ccc(OCCN5CCCC5)cc4)nn23)c1` [XX-332], the IC50 under setting [2] fell in the range of 100 to 1000 nM.

The compound `FC(F)(F)c1cccc(Cn2cc(-c3cccc4nc(Nc5ccc(OCCN6CCCC6)cc5)nn34)cn2)c1` [XX-273] came in with a half-maximal inhibitory concentration (IC50) under setting [2] of 100 to 1000 nM.

Under setting [2], `c1cc(NCCN2CCCC2)cc(Nc2nc3cccc(-c4ccc5c(c4)OCCO5)n3n2)c1` [XX-116] gave a concentration for half-maximal inhibition (IC50) of 100 to 1000 nM.

`F[C@H]1CCN(CCOc2ccc(Nc3nc4cccc(-c5ccc6c(c5)OCCO6)n4n3)cc2)C1` [XX-157]: under setting [2], the half-maximal inhibitory concentration (IC50) was 100 to 1000 nM.

`CNCCOc1cccc(Nc2nc3cccc(-c4ccc5occc5c4)n3n2)c1` [XX-086]: the IC50 under setting [1] is below 1000 nM and the concentration for half-maximal inhibition (IC50) under setting [2] is at most 100 nM.

Under setting [2], `c1cc(-c2ccc(-c3ccsc3)cc2)n2nc(Nc3ccc(OCCN4CCCC4)cc3)nc2c1` [XX-186] displayed a half-inhibitory concentration (IC50) of 100 to 1000 nM.

Under setting [2], `COc1ncccc1-c1cccc2nc(Nc3ccc(OCCN4CCCC4)cc3)nn12` [XX-200] registered an IC50 of 1000 to 10000 nM.

Regarding `CC(C)Oc1cccc(-c2cccc3nc(Nc4ccc(OCCN5CCCC5)cc4)nn23)c1` [XX-331], under setting [2], the IC50 fell in the range of 1000 to 10000 nM.

As to `COc1ccccc1NC(=O)Nc1cccc(-c2cccc3nc(Nc4ccc(OCCN5CCCC5)cc4)nn23)c1` [XX-229], under setting [2], the IC50 fell in the range of 1000 to 10000 nM.

Under setting [2], `c1cc(-c2cnn(CC3CC3)c2)n2nc(Nc3ccc(OCCN4CCCC4)cc3)nc2c1` [XX-316] showed an IC50 of at most 100 nM.

Turning to `c1ccc(Cn2cc(-c3cccc4nc(Nc5ccc(OCCN6CCCC6)cc5)nn34)cn2)cc1` [XX-193, [5-(1-Benzyl-1H-pyrazol-4-yl)-[1,2,4]triazolo[1,5-a]pyridin-2-yl]-[4-(2-pyrrolidin-1-yl-ethoxy)-phenyl]-amine], the IC50 under setting [2] is 100 to 1000 nM.

As to `CC(C)NC(=O)Cn1cc(-c2cccc3nc(Nc4ccc(OCCN5CCCC5)cc4)nn23)cn1` [XX-434], the 50% inhibitory concentration (IC50) under setting [2] is 1000 to 10000 nM.

With `CN(C)CCNC(=O)c1ccc(Nc2nc3cccc(-c4ccc5occc5c4)n3n2)cc1` [XX-084], the concentration for half-maximal inhibition (IC50) was below 1000 nM under setting [1] and at most 100 nM under setting [2].

With `CC(=O)Nc1ccc(S(=O)(=O)n2cc(-c3cccc4nc(Nc5ccc(OCCN6CCCC6)cc5)nn34)cn2)cc1` [XX-376], under setting [2], the IC50 fell in the range of 100 to 1000 nM.

Regarding `COc1ccc(-c2cccc3nc(Nc4ccc(OCCN(C)Cc5ccc(N)cc5)cc4)nn23)cc1` [XX-067], the half-inhibitory concentration (IC50) was below 1000 nM under setting [1] and at most 100 nM under setting [2].

Turning to `O=C(Nc1nc2cccc(-c3ccc([N+](=O)[O-])cc3)n2n1)C1CC1` [WW-107], the IC50 is, setting by setting: under setting [1], 1000 to 10000 nM; under setting [2], 1000 to 10000 nM.

Take `O=C(Nc1nc2cccc(NCc3ccccn3)n2n1)C1CC1` [WW-075, Cyclopropanecarboxylic acid {5-[(pyridin-2-ylmethyl)-amino]-[1,2,4]triazolo[1,5-a]pyridin-2-yl}-amide]: the half-maximal inhibitory concentration (IC50) was in the range of 1000 to 10000 nM under setting [1] and 1000 to 10000 nM under setting [2].

For `O=C(Nc1cccc(-c2cccc3nc(Nc4ccc(OCCN5CCCC5)cc4)nn23)c1)C1CC1` [XX-178], the IC50 under setting [2] lay in the range of 100 to 1000 nM.

The compound `CC(C)NC(=O)NCc1cccc(-c2cccc3nc(Nc4ccc(OCCN5CCCC5)cc4)nn23)c1` [XX-373] registered an IC50 under setting [2] of 100 to 1000 nM.

Take `COc1ccc(-c2cccc3nc(Nc4ccc(OCCN5CCCC5)cc4)nn23)cc1OC` [XX-245]: under setting [2], the half-inhibitory concentration (IC50) lay in the range of 1000 to 10000 nM.

Compound `Clc1cc(Cl)cc(-c2cccc3nc(Nc4ccc(OCCN5CCCC5)cc4)nn23)c1` [XX-298] registered an IC50 under setting [2] of 100 to 1000 nM.

As for `O=C(Nc1nc2cccc(-c3cccc(O)c3)n2n1)C1CC1` [WW-020], the IC50 under setting [1] lay within 1000 to 10000 nM and the half-inhibitory concentration (IC50) under setting [2] was 1000 to 10000 nM.

`COc1ccc(-c2cccc3nc(Nc4ccc(OCCN(C)C)cc4)nn23)cc1` [XX-006]: the IC50 reads like this: under setting [1], below 1000 nM; under setting [2], 100 to 1000 nM.

In the case of `COc1ccc(-c2cccc3nc(Nc4ccc5c(c4)OCCCO5)nn23)cc1` [XX-062], the IC50 was 1000 to 10000 nM under setting [1] and 1000 to 10000 nM under setting [2].

`O=C(CCN1CCCC1)Nc1ccc(Nc2nc3cccc(-c4ccc5c(c4)OCCO5)n3n2)cc1` [XX-104] yielded an IC50 under setting [2] of 100 to 1000 nM.

The compound `Cc1ccccc1CNc1cccc(-c2cccc3nc(Nc4ccc(OCCN5CCCC5)cc4)nn23)c1` [XX-454] displayed a concentration for half-maximal inhibition (IC50) under setting [2] of 100 to 1000 nM.

In turn, `O=C(Nc1cccc(-c2cccc3nc(Nc4ccc(OCCN5CCCC5)cc4)nn23)c1)c1ccno1` [XX-192] displayed a half-maximal inhibitory concentration (IC50) under setting [2] of 100 to 1000 nM.

Take `COc1ccc(-c2nc(COc3cccc(-c4cccc5nc(Nc6ccc(OCCN7CCCC7)cc6)nn45)c3)no2)cc1` [XX-461]: under setting [2], the IC50 is 1000 to 10000 nM.

The compound `c1cc(-c2ccsc2)cc(-c2cccc3nc(Nc4ccc(OCCN5CCCC5)cc4)nn23)c1` [XX-166] had a half-inhibitory concentration (IC50) under setting [2] of 100 to 1000 nM.

For `COc1ccc(-c2cccc3nc(Nc4ccc(C(=O)NCCN(C)C)cc4)nn23)cc1` [XX-036], the IC50 is below 1000 nM under setting [1] and 1000 to 10000 nM under setting [2].

Compound `Cc1ccc(-c2cccc(-c3cccc4nc(Nc5ccc(OCCN6CCCC6)cc5)nn34)c2)s1` [XX-463] yielded an IC50 under setting [2] of 1000 to 10000 nM.

`O=C(Nc1nc2cccc(-c3cccc(F)c3)n2n1)C1CC1` [WW-007, Cyclopropanecarboxylic acid [5-(3-fIuoro-phenyl)-[1,2,4]triazolo[1,5-a]pyridin-2-yl]-amide]: the IC50 was in the range of 1000 to 10000 nM under setting [1] and 1000 to 10000 nM under setting [2].

In the case of `COc1ccc(-c2cccc3nc(Nc4ccc(OCC(O)CN5CCOCC5)cc4)nn23)cc1` (stereo not shown) [XX-410], under setting [2], the IC50 lay in the range of 100 to 1000 nM.

Turning to `CC(C)(C)c1ccc(-c2cccc3nc(NC(=O)C4CC4)nn23)cc1` [WW-139], the IC50 reads like this: under setting [1], 1000 to 10000 nM; under setting [2], 1000 to 10000 nM.
